Results: patent US8273357B2, “Antigen-carbohydrate conjugates” (Massachusetts Institute of Technology, priority 2004, dated 2012)

What was measured:
[1] = biological target: T1, DC-SIGN (Homo sapiens, UniProt Q9NNX6); conditions: carbohydrate profiling by another group; cited from earlier work
T1 sequence (Q9NNX6 1-404): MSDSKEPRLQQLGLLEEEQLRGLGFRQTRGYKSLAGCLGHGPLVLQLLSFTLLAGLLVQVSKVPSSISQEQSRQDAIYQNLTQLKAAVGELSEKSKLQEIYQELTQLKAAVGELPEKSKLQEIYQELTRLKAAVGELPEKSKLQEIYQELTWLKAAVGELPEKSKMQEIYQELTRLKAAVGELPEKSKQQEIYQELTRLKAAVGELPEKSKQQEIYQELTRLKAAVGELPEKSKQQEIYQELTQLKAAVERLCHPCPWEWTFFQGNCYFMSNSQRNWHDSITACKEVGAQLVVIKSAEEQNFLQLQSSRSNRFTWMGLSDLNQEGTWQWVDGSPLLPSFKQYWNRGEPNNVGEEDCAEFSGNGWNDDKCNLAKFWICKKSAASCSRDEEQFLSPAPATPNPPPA

[2] = system: CD11c+ dendritic cells / OTII T cells; experiment: Antigen presentation assay, purified CD11c+ dendritic cells and purified OTII T cells; assay type: cell-based, mouse
Procedure: FIGS. 4A, 4B, 4C and 4D are graphs showing that CD11c^+ dendritic cells are the main antigen presenting cells presenting 3-1-targeted antigen. […] 1.5×10^4 Splenic CD11c^+ dendritic cells purified from C57BL/6 mice and 3.0×10^4 purified OTII T cells were incubated with OVA (starting concentration 300 μg mL^−1) or (OVA)-3-1 (starting concentration 25 μg mL^−1) in graded doses for eight-four hours with [^3H]thymidine (1 μCi) added for the last twelve hours. […] Purified CD11c^+ dendritic cells and OTII T cells were incubated with (OVA)-3-1 (25 μg mL^−1)±each potential inhibitor (100 μg mL^−1). T cell proliferation was determined as for FIG. 4A. […] CD11c^+ dendritic cells and OTII T cells were incubated with OVA or (OVA)-3-1±lipopolysaccharide ([…]). Also included are all ‘non-dendritic cells’ (macrophages and B cells) obtained during the purification of the dendritic cells. T cell proliferation was determined as described in FIG. 4A. […] Supernatants from cells described in FIG. 4C were collected at forty-eight and seventy-two hours and measured for IFN-γ by ELISA; the values presented are from the seventy-two hour time point. All measurements here were performed in triplicate.
To confirm that the increased T cell proliferation observed with (OVA)-3-1 was due to the selective uptake of this conjugate by dendritic cells and not B cells or macrophages, purified CD11c^+ dendritic cells were prepared from wild-type C57BL/6 mice and the OVA-specific T cells from transgenic OTII mice (see Materials & Methods). The in vitro antigen presentation assays described above were then repeated. […] By comparison, >50-fold more unmodified OVA was required to obtain similar levels of T cell proliferation. When B cells and macrophages were used as antigen-presenting cells in place of purified dendritic cells, the resulting T cell responses were negligible (FIG. 4C), providing strong confirmation that CD11c^+ dendritic cells are the main antigen-presenting cells mediating uptake and presentation of (OVA)-3-1 to OTII T cells.
(§1) Pooled inguinal lymph nodes were dissociated in 10% Fetal Bovine Serum RPMI (supplemented with 2 mM L-glutamine) and either mechanically dissociated between two glass slides or, to improve the overall cell yield, incubated in the presence of collagenase (Boehringer) and EDTA for 25 minutes at 37° C./5% CO2 to dissociate DC-T cell clusters. For antigen presentation assays with whole splenocytes, isolated spleens were injected with collagenase/EDTA, gently teased apart and incubated as described above. Splenocytes were cultured in 96-well round-bottom plates at a density of 3×10^5 cells/0.2 mL. In antigen presentation assays utilizing purified dendritic cells and T cells, dendritic cells were isolated from the spleens of C57BL/6 mice following collagenase/EDTA treatment by labeling the dendritic cells with commercially available magnetic microbeads linked to an anti-CD11c^+ antibody (Miltenyi Biotec, Bergisch Gladbach, Germany) (according to the Miltenyi Biotec protocol) and separating labeled Dendritic cells from non-dendritic cells by application of a magnetic field. Similarly, purified […] T cells were obtained from spleens of OTII transgenic mice using magnetic beads Dynal (Oslo, Norway). Purified dendritic cells and T cells were seeded onto 96-well plates round-bottom Plates at a 1:2 DC:T cell ratio unless stated otherwise in the Figures.

[3] = system: OTII (CD4+) T cells in unfractionated splenocytes; experiment: Antigen presentation assay, unfractionated OTII splenocytes, [3H]thymidine T cell proliferation; assay type: cell-based, mouse; conditions: OTII splenocytes
Procedure: FIG. 2B is a graph showing that oligosaccharide modification of OVA elicits stronger presentation to OTII T cells than unmodified OVA. Unfractionated OTII splenocytes (3×10^5/well) were incubated with graded doses of OVA or oligosaccharide-modified OVA for eighty-four hours with [^3H]thymidine (1 μCi) added for the last 12 hours. Thereafter [^3H]thymidine incorporation levels were measured and plotted. FIG. 2C is a graph showing that observed enhancements in antigen presentation of (OVA)-3-1 to T cells is carbohydrate dependent. Splenocytes were incubated with antigen as in (B)±(BSA)-3-1 (10 μg mL^−1). In cases where (OVA)-3-1 was added to OVA wells to assess the possibility of direct activation of T cells (see text), (OVA)-3-1 was present at 50 ng mL^−1; incubations were performed for seventy-two hours with [^3H]thymidine (1 μCi) added for the last 12 hours. FIG. 2D is a graph showing that the receptor mediated uptake of (OVA)-3-1 has a different binding profile than that observed for DC-SIGN. Unfractionated splenocytes were incubated with OVA or (OVA)-3-1±mBSA or Lewis^x-BSA (each at 100 μg mL^−1). Incubations were performed for seventy-two hours with [^3H]thymidine (1 μCi) added for the last twelve hours. All values reported are the mean of triplicate measurements.
The ability of these conjugates to enhance antigen uptake by dendritic cells was assessed in comparison to unmodified OVA by incubating graded doses of conjugate and OVA with unfractionated splenocytes (containing T cells, B cells, dendritic cells, macrophages) isolated from OTII (CD4^+) transgenic mice. The ability of dendritic cells to present antigenic peptides derived from targeted proteins was measured as a function of T cell proliferation in response to those presented peptides. T cell proliferation is quantified by [^3H]thymidine incorporation during cellular division.
as §1

[4] = biological target: T2, (OVA)-3-1, ovalbumin conjugated to the synthetic high-mannose nonasaccharide 3-1 (fluorophore-labeled in the … (UniProt P01012 2-386, average of three saccharides of structure 3-1 per molecule of OVA, coupled through the Sulfo-SMCC maleimide crosslinker to the thiol-bearing linker of the saccharide (sites not given); fluorophore …); experiment: binding and internalization of fluorophore-labeled (OVA)-3-1 on a cell line stably expressing CIRE
T2 construct: Neoglycoprotein; also called fluorophore-labeled (OVA)-3-1; carbohydrate-OVA conjugate
T2 sequence (looked up): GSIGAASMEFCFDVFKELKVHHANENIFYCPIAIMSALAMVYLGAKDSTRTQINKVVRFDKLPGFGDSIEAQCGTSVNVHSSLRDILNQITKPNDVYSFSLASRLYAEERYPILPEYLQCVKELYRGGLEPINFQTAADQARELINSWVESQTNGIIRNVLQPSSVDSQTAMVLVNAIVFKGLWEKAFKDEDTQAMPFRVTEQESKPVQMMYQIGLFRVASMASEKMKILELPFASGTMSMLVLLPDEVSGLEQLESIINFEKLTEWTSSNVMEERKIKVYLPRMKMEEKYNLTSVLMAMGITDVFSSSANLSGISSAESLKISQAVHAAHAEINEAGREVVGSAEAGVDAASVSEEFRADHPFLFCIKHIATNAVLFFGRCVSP
Procedure: (§2) To identify the receptor mediating uptake of the oligosaccharides employed herein, the murine DC-SIGN homolog CIRE[10] was analyzed as a potential receptor; a cell line stably expressing this lectin was used to assay for binding and internalization of fluorophore-labeled 3-1 and fluorophore-labeled (OVA)-3-1. […] The receptor may be identified biochemically, for example, by cross-linking it to bound (OVA)-3-1 and immunoprecipitating the complex with polyclonal sera raised against ovalbumin. Identification of the receptor would enable the determination of its human homolog.

[5] = biological target: T3, CIRE (Mus musculus, UniProt Q91ZX1); experiment: Binding and internalization by a cell line stably expressing CIRE; assay type: cell-based, murine
T3 construct: expressed in transfected cells
T3 sequence (Q91ZX1 1-238): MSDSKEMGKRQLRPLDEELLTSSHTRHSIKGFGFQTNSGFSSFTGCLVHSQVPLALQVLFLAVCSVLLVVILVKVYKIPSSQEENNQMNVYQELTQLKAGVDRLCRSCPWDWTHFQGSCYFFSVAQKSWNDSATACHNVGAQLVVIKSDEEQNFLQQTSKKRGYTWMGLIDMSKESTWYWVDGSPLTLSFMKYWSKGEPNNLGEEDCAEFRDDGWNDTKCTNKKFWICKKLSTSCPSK
Procedure: as §2, with “CIRE^10” for “CIRE[10]”

[6] = (OVA)-3-1 25 μg mL^−1, inhibitor 100 μg mL^−1

## CC(=O)N[C@H]1C(O)O[C@H](CO)[C@@H](O[C@@H]2O[C@H](CO)[C@H](O)[C@H](O)[C@H]2O)[C@@H]1O[C@@H]1O[C@@H](C)[C@@H](O)[C@@H](O)[C@@H]1O (stereo partly drawn) [Lewis^x, reference compound]
[1]
  recognition by DC-SIGN: can recognize
[2]; [6]
  inhibitory effect on (OVA)-3-1 presentation by dendritic cells: marginal effects

## bovine serum albumin [BSA, reference compound]
[3]; (BSA)-3-1 10 μg mL^−1, 72 h
  effect of co-incubated protein on (OVA)-3-1 uptake / OTII proliferation: did not affect

## invertase: high-mannose-bearing glycoprotein [reference compound]
[2]; [6]
  reduction (inhibition) of (OVA)-3-1 presentation: 18%
[2]; similar level of inhibition as mannose
  concentration giving inhibition of (OVA)-3-1 presentation: 0.5 µM

## mannan [reference compound]
[2]; [6]
  reduction (inhibition) of (OVA)-3-1 presentation: 31%

B1: CIRE, murine DC-SIGN homolog (receptor)
chain: T3 sequence (Q91ZX1 1-238)
[4]
  binding result: no binding

B2: (OVA)-3-7: ovalbumin conjugate of monosaccharide galactose 3-7 (conjugate, UniProt P01012 2-386, looked up)
Ovalbumin: T2 sequence (looked up)
modifications: carbohydrate conjugate
[3]; graded doses
  enhancement of antigen uptake and presentation to T cells (T cell proliferation) compared to unmodified OVA: did not promote increased presentation at all

B3: fluorophore-labeled (OVA)-3-1: fluorophore-labeled (OVA)-3-1 (conjugate)
chain: T2 sequence (looked up)
[5]
  binding and internalization by CIRE-expressing cell line: did not reveal any interactions
